No end group written: not given here.
Columns and labels:
[1] = tested on: yeast (Saccharomyces cerevisiae); assay: Antimicrobial assay I, yeast assay in RPMI 1640; assay type: cell-based; conditions: RPMI 1640 media
Procedure: (§1) The data for the following antimicrobial assay of the peptides have been obtained by making OD measurements in in vitro cell culture experiments with and without added peptide. The protocol used is as follows.
(§2) Absorbance was read at 620 nm after shaking to resuspend cells.
The yeast assay was performed in RPMI 1640 media (pH 7.0 at 25° C.).
(§3) Staph6538 is Staphylococcus aureus ATCC accession number 6538; paerug9027 is Pseudomonas aeruginosa ATCC accession number 9027, yeast is Saccharomyces cerevisiae.

[2] = tested on: Pseudomonas aeruginosa ATCC 9027; assay: Antimicrobial assay I, MIC by OD measurement; assay type: cell-based; conditions: 37° C. for 24 hours, absorbance 620 nm
Text: as §1
(§4) Cell lines included Staphylococcus aureus ATCC 6538 or 25923, Pseudomonas aeruginosa ATCC 9027 or 27853. Medium used were Antibiotic Medium 3 (Difco), Antibiotic Medium 2 (Difco), and 0.85% saline. Controls used were physiological saline, and gentamycin at 50, 25, 10, 5, 1, and 0.1 ppm.
as §2, §3

[3] = tested on: Staphylococcus aureus ATCC 6538; assay: Antimicrobial assay I, MIC by OD measurement; assay type: cell-based; conditions: 37° C. for 24 hours, absorbance 620 nm
Text: as §1, §4, §2, §3

in vitro [4] = assay type: cell-based, human; conditions: human, human red blood cells, pH 7, hemolytic assay, concentration at 50% hemolysis, 1 hour at 37° C.; read-out: LD50
Procedure: This hemolytic assay is based upon that presented in Journal of Peptide Research 53: 82-90 (1999). […] All procedures were performed according to safety protocols pertaining to the handling and disposal of human body fluids.
Red blood cells (RBCs) were washed three times with PBS (35 mM phosphate buffer 0.15 M NaCl, pH 7.0). RBCs suspended in PBS (0.4% (v/v); about 10 ml per 15 peptides) were prepared. Suspensions (100 μl) were aliquoted to each sample and control tube. Serially diluted peptide solutions (100 μl) were pipetted into the sample tubes. Negative control tubes contained 100 μl PBS; positive control tubes contained 100 μl 1% Triton-X100 detergent. All tubes were incubated for 1 hour at 37° C. The tubes were removed from the incubator and centrifuged at 1000 g for 5 minutes. Supernatant (100 μl) was pipetted to a 96-well polyvinyl chloride plate. The absorbance at 414 nm (A414) was measured, and used to calculate the percent hemolysis according to the following formula. [formula]

in vitro [5] = conditions: human, WI38 normal lung fibroblast cells, LD50 WI38, WI38 normal lung fibroblast line, MTT, 24 hours with peptide
H1299 = assay: Anti-cancer assay, MTT, LD50; assay type: cell-based; conditions: 24 hours with peptide, lung large cell carcinoma
Text: (§5) Numbers are LD50 values (μg/mL).

SW480 = assay: Anti-cancer assay, MTT, LD50; assay type: cell-based; conditions: SW480 colon adenocarcinoma line, 24 hours with peptide
Text: as §5

HeLaS3 = assay: Anti-cancer assay, MTT, LD50; assay type: cell-based; conditions: 24 hours with peptide, cervical carcinoma
Text: as §5

BMKC = assay: Anti-cancer assay, MTT, LD50; assay type: cell-based; conditions: BMKC cloned melanoma line, 24 hours with peptide
Text: as §5

MCF7 = assay: Anti-cancer assay, MTT, LD50; assay type: cell-based; conditions: MCF7 breast adenocarcinoma line, MTT, 24 hours with peptide
Text: as §5

WI38 = conditions: MTT, 24 hours with peptide; for WI38 LD50: normal fibroblast line; for LD50 WI38: WI38 normal lung fibroblast line
PC3 = assay: Anti-cancer assay, MTT, LD50; assay type: cell-based; conditions: 24 hours with peptide, prostate adenocarcinoma
Text: as §5

Compound	yeast (MIC or MFC) [1]	paerug9027 (MIC) [2]	staph6538 (MIC) [3]	HC50 at 1 h (in vitro [4]) [µg/mL]	CC50 at 24 h (in vitro [5]) [µg/mL]	H1299 LD50 (H1299)	LD50 SW480 (SW480)	HeLaS3 LD50 (HeLaS3)	LD50 BMKC (BMKC)	LD50 MCF7 (MCF7)	WI38 LD50 (WI38)	PC3 LD50 (PC3)	LD50 WI38 (WI38)
FALALKALKKALKKLKKALKKAL-OH [P1, reference compound]	> (> indicates greater than 200 μg/mL)	10 µg/mL	5 µg/mL	100	–	–	–	–	–	–	–	–	–
FALALKA-NH2 [P141, FALALKA-NH2]	200 µg/mL	50 µg/mL	15 µg/mL	900	420	> (> indicates greater than 1000)	560 µg/mL	> (> indicates greater than 1000)	465 µg/mL	430 µg/mL	420 µg/mL	–	–
FAKLLAKLAK-NH2 [P123]	100 µg/mL	200 µg/mL	50 µg/mL	1000	600	> (> indicates greater than 1000)	> (> indicates greater than 1000)	940 µg/mL	635 µg/mL	615 µg/mL	600 µg/mL	> (> indicates greater than 1000)	–
FAFGKGIGKIGKKGL-NH2 [P138]	> (> indicates greater than 200 μg/mL)	> (> indicates greater than 200 μg/mL)	> (> indicates greater than 200 μg/mL)	20	–	> (> indicates greater than 1000)	> (> indicates greater than 1000)	> (> indicates greater than 1000)	> (> indicates greater than 1000)	> (> indicates greater than 1000)	> (> indicates greater than 1000)	> (> indicates greater than 1000)	> (> indicates greater than 1000)
KLLKLLLKLYKKLLKLL-OH [P156]	> (> indicates greater than 200 μg/mL)	> (> indicates greater than 200 μg/mL)	15 µg/mL	10	230	–	345 µg/mL	> (> indicates greater than 1000)	520 µg/mL	135 µg/mL	230 µg/mL	260 µg/mL	–
FALALKALKKAL-NH2 [P144, FALALKALKKAL-NH2]	50 µg/mL	50 µg/mL	5 µg/mL	600	750	225 µg/mL	285 µg/mL	275 µg/mL	250 µg/mL	150 µg/mL	750 µg/mL	350 µg/mL	–
FAKLLAKLAKKGL-NH2 [P152]	100 µg/mL	50 µg/mL	100 µg/mL	880	620	410 µg/mL	740 µg/mL	> (> indicates greater than 1000)	> (> indicates greater than 1000)	430 µg/mL	620 µg/mL	> (> indicates greater than 1000)	–
LKKLAKLALAF-NH2 [P179]	100 µg/mL	50 µg/mL	50 µg/mL	850	540	> (> indicates greater than 1000)	> (> indicates greater than 1000)	> (> indicates greater than 1000)	920 µg/mL	555 µg/mL	540 µg/mL	> (> indicates greater than 1000)	–
KWKLAKKALALL-NH2 [P142]	100 µg/mL	50 µg/mL	100 µg/mL	900	73	115 µg/mL	38 µg/mL	55 µg/mL	38 µg/mL	44 µg/mL	73 µg/mL	60 µg/mL	–
FALLKALKKAL-NH2 [P171, FALLKALKKAL-NH2]	100 µg/mL	50 µg/mL	25 µg/mL	550	615	540 µg/mL	770 µg/mL	820 µg/mL	600 µg/mL	305 µg/mL	615 µg/mL	600 µg/mL	–
VAKLLAKLAKKVL-NH2 [P154]	50 µg/mL	100 µg/mL	100 µg/mL	450	600	400 µg/mL	750 µg/mL	> (> indicates greater than 1000)	330 µg/mL	315 µg/mL	600 µg/mL	640 µg/mL	–
KWKLFKKIGAVLKVL-NH2 [P53, reference compound]	50 µg/mL	15 µg/mL	5 µg/mL	20	32	65 µg/mL	–	30 µg/mL	40 µg/mL	45 µg/mL	32 µg/mL	40 µg/mL	–
ILPWKWPWWPWRR-COOH [P91, reference compound]	> (> indicates greater than 200 μg/mL)	> (> indicates greater than 200 μg/mL)	10 µg/mL	–	–	64 µg/mL	30 µg/mL	20 µg/mL	180 µg/mL	12 µg/mL	–	31 µg/mL	–
CC[C@H](C)[C@H](NC(=O)CN)C(=O)NCC(=O)N[C@@H](C)C(=O)N[C@H](C(=O)N[C@@H](CC(C)C)C(=O)N[C@@H](CCCCN)C(=O)N[C@H](C(=O)N[C@@H](CC(C)C)C(=O)N[C@H](C(=O)N[C@H](C(=O)NCC(=O)N[C@@H](CC(C)C)C(=O)N1CCC[C@H]1C(=O)N[C@@H](C)C(=O)N[C@@H](CC(C)C)C(=O)N[C@H](C(=O)N[C@@H](CO)C(=O)N[C@@H](Cc1c[nH]c2ccccc12)C(=O)N[C@H](C(=O)N[C@@H](CCCCN)C(=O)N[C@@H](CCCNC(=N)N)C(=O)N[C@@H](CCCCN)C(=O)N[C@@H](CCCNC(=N)N)C(=O)N[C@@H](CCC(N)=O)C(=O)N[C@@H](CCC(N)=O)C(N)=O)[C@@H](C)CC)[C@@H](C)CC)[C@@H](C)O)[C@@H](C)O)C(C)C)C(C)C [P108, reference compound]	25 µg/mL	> (> indicates greater than 200 μg/mL)	5 µg/mL	–	–	–	–	–	–	–	–	–	–
FALLKL-NH2 [P168, FALLKL-NH2]	> (> indicates greater than 200 μg/mL)	100 µg/mL	50 µg/mL	600	–	> (> indicates greater than 1000)	> (> indicates greater than 1000)	> (> indicates greater than 1000)	590 µg/mL	630 µg/mL	> (> indicates greater than 1000)	> (> indicates greater than 1000)	> (> indicates greater than 1000)
FAKKLAKKLKKLAKKLIGAVLKV-OH [P99]	> (> indicates greater than 200 μg/mL)	> (> indicates greater than 200 μg/mL)	100 µg/mL	25	–	–	–	–	–	–	–	–	–
